The values that follow come from patent US20260092071A1, “COMPOUNDS AND COMPOSITIONS AS SMARCA2/4 DEGRADERS AND USES THEREOF” (REGENTS OF THE UNIVERSITY OF MICHIGAN, priority 2022, published 2026).

In one assay the target is SMARCA2 (Homo sapiens, UniProt P51531). Briefly: HiBit assay in engineered HT1080 CRISPR knock-in cell, 6 hrs (B series), SMARCA2. It is filed as cell-based. The settings on record: 6 hrs incubation; for DC50: HT1080 CRISPR knock-in cells, read-out: SMARC A2 HT1080 HiBit DC50; for Dmax: HT-1080, HT1080 CRISPR knock-in cells, read-out: SMARC A2 HT1080 HiBit Dmax (%). The method, then: (§1) The HiBit assay was performed using engineered HT1080 CRISPR knock-in cell utilizing the Nano-Glo HiBiT Lytic Detection System from Promega, Cat #N3040. Compounds were transferred, 25 nL DMSO or test compounds (final DMSO @ 0.1%) to intermediate plates (Corning3570) using ECHO550. Cells were seeded onto compounds at 2000 cells/25 μL/well and incubated for 6 hrs in a tissue culture incubator at 37° C. and 5% CO2. The LgBiT Protein was diluted at 1:100 and the Nano-Glo® HiBIT Lytic Substrate 1:50 into an appropriate volume of room temperature using the Nano-Glo® HiBiT Lytic Buffer. At the end of compound incubation time, 15 ul of the detection reagent was added to each well (without LgBiT for negative control wells) using the Thermo Scientific multidrop combi. The plate was shaken for 10 mins at RT using Combi. After briefly centrifugation (2000 rpm 1 mins), plate was read on Envision (Ultrasensitive luminescence model).
On the technique in general: The HiBiT peptide binds its large partner to form an active luciferase.

Another assay deals with SMARCA4 (Homo sapiens, UniProt P51532). Briefly: HiBit assay in engineered HT1080 CRISPR knock-in cell, 6 hrs (B series), SMARCA4. Type of assay: cell-based. The settings on record: 6 hrs incubation; for DC50: HT1080 CRISPR knock-in cells, read-out: SMARC A4 HT1080 HiBit DC50; for Dmax: HT-1080, HT1080 CRISPR knock-in cells, read-out: SMARC A4 HT1080 HiBit Dmax(%). Here is the method: as §1
Chain of SMARCA4 (P51532 whole entry): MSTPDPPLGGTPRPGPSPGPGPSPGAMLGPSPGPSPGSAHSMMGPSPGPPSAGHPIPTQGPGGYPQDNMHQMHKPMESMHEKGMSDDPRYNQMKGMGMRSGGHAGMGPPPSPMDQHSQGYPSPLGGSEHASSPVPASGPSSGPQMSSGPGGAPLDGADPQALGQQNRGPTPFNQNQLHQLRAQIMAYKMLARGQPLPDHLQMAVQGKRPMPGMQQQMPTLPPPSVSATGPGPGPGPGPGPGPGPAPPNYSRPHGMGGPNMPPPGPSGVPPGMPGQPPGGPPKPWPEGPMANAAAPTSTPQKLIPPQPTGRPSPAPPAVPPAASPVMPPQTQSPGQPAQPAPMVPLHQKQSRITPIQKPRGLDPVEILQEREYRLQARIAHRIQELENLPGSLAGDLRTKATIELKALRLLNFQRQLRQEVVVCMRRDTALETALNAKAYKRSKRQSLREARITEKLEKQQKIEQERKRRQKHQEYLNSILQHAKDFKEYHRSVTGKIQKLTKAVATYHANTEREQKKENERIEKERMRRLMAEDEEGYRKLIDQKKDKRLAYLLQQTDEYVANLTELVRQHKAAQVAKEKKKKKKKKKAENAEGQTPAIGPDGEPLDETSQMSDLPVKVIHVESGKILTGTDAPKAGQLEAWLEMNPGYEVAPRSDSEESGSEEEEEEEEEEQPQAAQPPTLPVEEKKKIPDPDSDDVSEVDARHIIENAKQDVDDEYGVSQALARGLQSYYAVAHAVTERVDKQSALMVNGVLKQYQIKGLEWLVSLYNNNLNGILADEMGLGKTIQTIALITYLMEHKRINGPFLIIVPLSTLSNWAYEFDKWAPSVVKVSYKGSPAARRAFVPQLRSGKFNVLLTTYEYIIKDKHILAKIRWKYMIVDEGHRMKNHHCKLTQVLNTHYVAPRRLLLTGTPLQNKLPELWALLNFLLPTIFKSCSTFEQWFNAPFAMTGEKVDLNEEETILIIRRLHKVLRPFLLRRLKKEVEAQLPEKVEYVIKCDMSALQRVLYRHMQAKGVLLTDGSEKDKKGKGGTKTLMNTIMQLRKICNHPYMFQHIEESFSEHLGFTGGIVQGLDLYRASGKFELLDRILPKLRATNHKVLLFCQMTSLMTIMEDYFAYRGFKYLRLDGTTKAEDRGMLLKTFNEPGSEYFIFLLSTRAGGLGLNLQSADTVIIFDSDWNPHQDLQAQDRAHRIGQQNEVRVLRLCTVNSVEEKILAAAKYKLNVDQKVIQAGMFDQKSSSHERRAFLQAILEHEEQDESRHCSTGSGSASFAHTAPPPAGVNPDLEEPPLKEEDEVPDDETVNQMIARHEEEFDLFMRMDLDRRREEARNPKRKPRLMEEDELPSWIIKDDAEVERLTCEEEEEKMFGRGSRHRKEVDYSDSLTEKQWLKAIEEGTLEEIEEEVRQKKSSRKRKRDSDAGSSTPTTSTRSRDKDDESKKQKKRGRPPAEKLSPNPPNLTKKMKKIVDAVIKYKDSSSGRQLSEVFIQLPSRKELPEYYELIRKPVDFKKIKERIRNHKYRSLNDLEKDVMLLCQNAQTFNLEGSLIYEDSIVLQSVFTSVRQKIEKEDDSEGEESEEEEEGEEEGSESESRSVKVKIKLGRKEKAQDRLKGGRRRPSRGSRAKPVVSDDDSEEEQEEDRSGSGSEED

Chain of SMARCA2 (P51531 whole entry): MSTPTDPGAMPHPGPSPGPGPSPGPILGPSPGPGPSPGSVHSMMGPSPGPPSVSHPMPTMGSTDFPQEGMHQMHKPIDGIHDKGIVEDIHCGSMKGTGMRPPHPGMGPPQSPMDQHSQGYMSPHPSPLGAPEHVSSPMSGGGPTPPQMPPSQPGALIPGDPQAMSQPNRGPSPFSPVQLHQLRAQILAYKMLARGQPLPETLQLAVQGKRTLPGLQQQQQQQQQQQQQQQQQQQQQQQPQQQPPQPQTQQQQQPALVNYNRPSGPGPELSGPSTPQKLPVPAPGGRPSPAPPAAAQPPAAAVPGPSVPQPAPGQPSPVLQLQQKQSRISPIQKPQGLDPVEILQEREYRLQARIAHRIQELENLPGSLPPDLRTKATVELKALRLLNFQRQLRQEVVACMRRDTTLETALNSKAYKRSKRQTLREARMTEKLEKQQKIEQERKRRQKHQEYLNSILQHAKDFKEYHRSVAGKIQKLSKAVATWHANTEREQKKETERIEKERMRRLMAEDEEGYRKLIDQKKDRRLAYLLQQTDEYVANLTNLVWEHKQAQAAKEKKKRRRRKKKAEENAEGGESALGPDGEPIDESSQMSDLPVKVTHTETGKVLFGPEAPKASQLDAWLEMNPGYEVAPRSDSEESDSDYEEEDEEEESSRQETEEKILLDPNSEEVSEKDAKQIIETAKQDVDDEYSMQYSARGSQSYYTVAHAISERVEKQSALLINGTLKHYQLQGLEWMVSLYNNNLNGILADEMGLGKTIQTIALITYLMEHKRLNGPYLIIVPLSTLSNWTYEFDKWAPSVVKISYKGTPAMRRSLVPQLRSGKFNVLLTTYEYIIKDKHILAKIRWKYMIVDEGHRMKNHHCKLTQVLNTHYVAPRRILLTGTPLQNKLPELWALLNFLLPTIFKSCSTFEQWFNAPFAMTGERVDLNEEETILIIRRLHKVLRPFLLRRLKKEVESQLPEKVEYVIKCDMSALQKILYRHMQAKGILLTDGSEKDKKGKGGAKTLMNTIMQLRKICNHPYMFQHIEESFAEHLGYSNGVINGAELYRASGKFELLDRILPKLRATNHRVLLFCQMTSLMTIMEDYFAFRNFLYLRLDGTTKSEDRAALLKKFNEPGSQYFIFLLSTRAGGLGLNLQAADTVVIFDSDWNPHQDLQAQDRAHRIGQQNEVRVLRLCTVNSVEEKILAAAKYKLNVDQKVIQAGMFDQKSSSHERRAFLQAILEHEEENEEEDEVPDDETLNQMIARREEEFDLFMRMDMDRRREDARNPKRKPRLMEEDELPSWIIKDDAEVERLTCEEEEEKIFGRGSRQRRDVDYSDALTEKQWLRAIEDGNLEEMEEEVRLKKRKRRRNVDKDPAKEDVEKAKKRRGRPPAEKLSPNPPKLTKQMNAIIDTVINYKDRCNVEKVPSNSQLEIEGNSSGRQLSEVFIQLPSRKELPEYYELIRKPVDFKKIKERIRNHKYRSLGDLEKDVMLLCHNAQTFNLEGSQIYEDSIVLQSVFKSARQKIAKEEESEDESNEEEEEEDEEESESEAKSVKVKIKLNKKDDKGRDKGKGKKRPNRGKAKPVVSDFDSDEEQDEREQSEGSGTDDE

For `C[C@H](NC(=O)[C@@H]1C[C@@H](O)CN1C(=O)[C@@H](n1cc([C@H]2CC[C@H](CN3CCC(c4ccc5c(c4)-n4c(nc(=O)c6c(Cl)cccc64)C5(C)C)CC3)CC2)nn1)C(C)(C)C)c1ccc(-c2scnc2C#CCN2CCOCC2)cc1` [Compound B156, (2S,4R)-1-((R)-2-(4-((1r,4R)-4-((4-(4-chloro-7,7-dimethyl-5-oxo-5,7-dihydroindolo[1,2-a]quinazolin-10-yl)piperidin-1-yl)methyl)cyclohexyl)-1H-1,2,3-triazol-1-yl)-3,3-dimethylbutanoyl)-4-hydroxy-N-((S)-1-(4-(4-(3-morpholinoprop-1-yn-1-yl)thiazol-5-yl)phenyl)ethyl)pyrrolidine-2-carboxamide], the DC50 at SMARCA2 and at SMARCA4 was below 100 nM throughout. Also, the Dmax on SMARCA2 is above 90%; at SMARCA4, 50 to 69%.
Turning to `Cc1ncsc1-c1ccc([C@H](CC(=O)N[C@H]2CC[C@H](CN3CCC(c4ccc5c(c4)-n4c(nc(=O)c6c(Cl)cccc64)C5(C)C)CC3)CC2)NC(=O)[C@@H]2C[C@@H](O)CN2C(=O)[C@@H](NC(=O)C2(F)CC2)C(C)(C)C)cc1` [Compound B22, (2S,4R)-N-((S)-3-(((1r,4S)-4-((4-(4-chloro-7,7-dimethyl-5-oxo-5,7-dihydroindolo[1,2-a]quinazolin-10-yl)piperidin-1-yl)methyl)cyclohexyl)amino)-1-(4-(4-methylthiazol-5-yl)phenyl)-3-oxopropyl)-1-((S)-2-(1-fluorocyclopropane-1-carboxamido)-3,3-dimethylbutanoyl)-4-hydroxypyrrolidine-2-carboxamide], on SMARCA2, the DC50 is below 100 nM and the Dmax was above 90%. For the same molecule, on SMARCA4, the DC50 was in the range of 100 to 500 nM and the Dmax lay in the range of 50 to 69%.
For `Cc1ncsc1-c1ccc([C@H](C)NC(=O)[C@@H]2C[C@@H](O)CN2C(=O)[C@@H](NC(=O)C2CCC(CN3CCC(c4ccc5c(c4)C(C)(C(F)(F)F)c4nc(=O)c6c(Cl)cccc6n4-5)CC3)CC2)C(C)(C)C)cc1` (stereo partly drawn) [Compound B76, (2S,4R)-1-((2S)-2-((1r,4S)-4-((4-(4-chloro-7-methyl-5-oxo-7-(trifluoromethyl)-5,7-dihydroindolo[1,2-a]quinazolin-9-yl)piperidin-1-yl)methyl)cyclohexane-1-carboxamido)-3,3-dimethylbutanoyl)-4-hydroxy-N-((S)-1-(4-(4-methylthiazol-5-yl)phenyl)ethyl)pyrrolidine-2-carboxamide], the DC50 on SMARCA2 and on SMARCA4 was 100 to 500 nM throughout. In addition, the Dmax was 70 to 90% on SMARCA2 and below 50% at SMARCA4.
Take `Cc1ncsc1-c1ccc([C@H](CC(=O)NC2CCC(N3CCC(c4ccc5c(c4)-n4c(nc(=O)c6c(Cl)cccc64)C5(C)C)CC3)CC2)NC(=O)[C@@H]2C[C@@H](O)CN2C(=O)[C@@H](NC(=O)C2(F)CC2)C(C)(C)C)cc1` (stereo partly drawn) [Compound B31, (2S,4R)—N—((S)-3-((4-(4-(4-chloro-7,7-dimethyl-5-oxo-5,7-dihydroindolo[1,2-a]quinazolin-10-yl)piperidin-1-yl)cyclohexyl)amino)-1-(4-(4-methylthiazol-5-yl)phenyl)-3-oxopropyl)-1-((S)-2-(1-fluorocyclopropane-1-carboxamido)-3,3-dimethylbutanoyl)-4-hydroxypyrrolidine-2-carboxamide]: at SMARCA2, the DC50 was in the range of 100 to 500 nM and the Dmax lay in the range of 70 to 90%. In addition, on SMARCA4, the DC50 fell in the range of 100 to 500 nM and the Dmax was below 50%.
In the case of `Cc1cc(C(C(=O)N2C[C@H](O)C[C@H]2C(=O)N[C@@H](C)c2ccc(-c3scnc3C#CCOCCCN3CCC(c4cccc5c4C(C)(C)c4nc(=O)c6c(Cl)cccc6n4-5)CC3)cc2)C(C)C)on1` (stereo partly drawn) [Compound B145, (2S,4R)-N-((S)-1-(4-(4-(3-(3-(4-(4-chloro-7,7-dimethyl-5-oxo-5,7-dihydroindolo[1,2-a]quinazolin-8-yl)piperidin-1-yl)propoxy)prop-1-yn-1-yl)thiazol-5-yl)phenyl)ethyl)-4-hydroxy-1-(3-methyl-2-(3-methylisoxazol-5-yl)butanoyl)pyrrolidine-2-carboxamide], the DC50 at SMARCA2 and on SMARCA4 was 100 to 500 nM in each case. Moreover, the figures for the Dmax on SMARCA2 and at SMARCA4 were 70 to 90% and 50 to 69%, respectively.
Regarding `C[C@H](NC(=O)[C@@H]1C[C@@H](O)CN1C(=O)[C@@H](NC(=O)[C@H]1CC[C@H](C(=O)N2CCC(c3ccc4c(c3)-n3c(nc(=O)c5c(Cl)cccc53)C4(C)C)CC2)CC1)C(C)(C)C)c1ccc(-c2ncnn2C)cc1` [Compound B65, (2S,4R)-1-((S)-2-((1r,4S)-4-(4-(4-chloro-7,7-dimethyl-5-oxo-5,7-dihydroindolo[1,2-a]quinazolin-10-yl)piperidine-1-carbonyl)cyclohexane-1-carboxamido)-3,3-dimethylbutanoyl)-4-hydroxy-N-((S)-1-(4-(1-methyl-1H-1,2,4-triazol-5-yl)phenyl)ethyl)pyrrolidine-2-carboxamide], on SMARCA2, the DC50 lay in the range of 100 to 500 nM and the Dmax was below 50%. Moreover, at SMARCA4, the DC50 was above 1000 nM and the Dmax is below 50%.
On to `Cc1ncsc1-c1ccc([C@H](C)NC(=O)[C@@H]2C[C@@H](O)CN2C(=O)[C@H](c2cc(N3CCC(C(=O)N4CCC(c5ccc6c(c5)C(C)(C)c5nc(=O)c7c(Cl)cccc7n5-6)CC4)CC3)no2)C(C)C)cc1` [Compound B89, (2S,4R)-1-(2-(3-(4-(4-(4-chloro-7,7-dimethyl-5-oxo-5,7-dihydroindolo[1,2-a]quinazolin-9-yl)piperidine-1-carbonyl)piperidin-1-yl)isoxazol-5-yl)-3-methylbutanoyl)-4-hydroxy-N—((S)-1-(4-(4-methylthiazol-5-yl)phenyl)ethyl)pyrrolidine-2-carboxamide], for which, on SMARCA2, the DC50 was below 100 nM and the Dmax is above 90%. On SMARCA4, the DC50 fell in the range of 100 to 500 nM and the Dmax is above 90%.
As for `Cc1ncsc1-c1ccc(C2(NC(=O)[C@@H]3C[C@@H](O)CN3C(=O)[C@@H](n3cc([C@H]4CC[C@H](CN5CCC(c6ccc7c(c6)-n6c(nc(=O)c8c(Cl)cccc86)C7(C)C)CC5)CC4)nn3)C(C)(C)C)CNC2)cc1` [Compound B113, (2S,4R)-1-((S)-2-(4-((1r,4S)-4-((4-(4-chloro-7,7-dimethyl-5-oxo-5,7-dihydroindolo[1,2-a]quinazolin-10-yl)piperidin-1-yl)methyl)cyclohexyl)-1H-1,2,3-triazol-1-yl)-3,3-dimethylbutanoyl)-4-hydroxy-N-(3-(4-(4-methylthiazol-5-yl)phenyl)azetidin-3-yl)pyrrolidine-2-carboxamide], at SMARCA2, the DC50 is 100 to 500 nM and the Dmax was above 90%. For the same molecule, on SMARCA4, the DC50 is 501 to 1000 nM and the Dmax was below 50%.
In the same order, the values of `Cc1cc(C(C(=O)N2C[C@H](O)C[C@H]2C(=O)N[C@@H](C)c2ccc(-c3scnc3C#CCOCCCN3CCC(c4ccc5c(c4)-n4c(nc(=O)c6c(Cl)cccc64)C5(C)C)CC3)cc2)C(C)C)on1` (stereo partly drawn) [Compound B103, (2S,4R)-N-((S)-1-(4-(4-(3-(3-(4-(4-chloro-7,7-dimethyl-5-oxo-5,7-dihydroindolo[1,2-a]quinazolin-10-yl)piperidin-1-yl)propoxy)prop-1-yn-1-yl)thiazol-5-yl)phenyl)ethyl)-4-hydroxy-1-(3-methyl-2-(3-methylisoxazol-5-yl)butanoyl)pyrrolidine-2-carboxamide] are below 100 nM, above 90%, below 100 nM and above 90%.
In the same order, the values of `Cc1ncsc1-c1ccc([C@H](C)NC(=O)[C@@H]2C[C@@H](O)CN2C(=O)[C@@H](c2cc(OC3CCC(N4CCC(c5ccc6c(c5)-n5c(nc(=O)c7c(Cl)cccc75)C6(C)C)CC4)CC3)no2)C(C)C)cc1` (stereo partly drawn) [Compound B81, (2S,4R)-1-((R)-2-(3-((4-(4-(4-chloro-7,7-dimethyl-5-oxo-5,7-dihydroindolo[1,2-a]quinazolin-10-yl)piperidin-1-yl)cyclohexyl)oxy)isoxazol-5-yl)-3-methylbutanoyl)-4-hydroxy-N-((S)-1-(4-(4-methylthiazol-5-yl)phenyl)ethyl)pyrrolidine-2-carboxamide] are below 100 nM, above 90%, below 100 nM and below 50%.
In the same order, the values of `Cc1ncsc1-c1ccc2c(c1)CCC[C@H]2NC(=O)[C@@H]1C[C@@H](O)CN1C(=O)[C@@H](n1cc([C@H]2CC[C@H](CN3CCC(c4ccc5c(c4)-n4c(nc(=O)c6c(Cl)cccc64)C5(C)C)CC3)CC2)nn1)C(C)(C)C` [Compound B151, (2S,4R)-1-((S)-2-(4-((1r,4S)-4-((4-(4-chloro-7,7-dimethyl-5-oxo-5,7-dihydroindolo[1,2-a]quinazolin-10-yl)piperidin-1-yl)methyl)cyclohexyl)-1H-1,2,3-triazol-1-yl)-3,3-dimethylbutanoyl)-4-hydroxy-N-((R)-6-(4-methylthiazol-5-yl)-1,2,3,4-tetrahydronaphthalen-1-yl)pyrrolidine-2-carboxamide] are below 100 nM, above 90%, 100 to 500 nM and 50 to 69%.
